In brackets after ≈: the same amount, converted by molar mass. Several values for one entry are separate records, joined by “and”; a condition that tells them apart may be missing. Equal values may be shown once. Read-outs that look alike come from different tables or passages of the source.
Key:
[1] = Histopathological studies (H&E staining, imaging) of lungs of infected and non-infected mice; assay type: in vivo, BALB/c mice
Description: Group A: No infection, treated with PBS: Ten (10) BALB/c 6-weeks old female mice were used for this group. Mice were first anesthetized with isoflurane. Each mouse was intranasally treated with one dose of PBS (75 ul). Mice were sacrificed at 72 hrs, and 7 days post treatment. The lungs from these mice were collected for immunohistochemistry and cytokines analysis.
Group B: No infection, treated with Compound 12: Twenty (20) BALB/c 6-weeks old female mice was used for this group. Mice were first anesthetized with isoflurane. Each mouse was intranasally treated with one dose of 0.5 mg of […] diluted in PBS (75 ul). Mice were sacrificed at 24 hrs, 48 hrs, 72 hrs, and 7 days post treatment. The lungs from these mice were collected for immunohistochemistry and cytokines analysis.
(§1) Group C: Infection with 229E, treated with PBS: Thirty five (35) BALB/c 6-weeks old female mice were used for this group. Mice were first anesthetized with isoflurane. Each mouse was intranasally infected with 1×105 plaque forming unit (pfu) of HCoV-229E and then treated with PBS (75 ul) 24 hours later. Mice were sacrificed at 24 hrs post infection, and 24 hrs, 48 hrs, 72 hrs, 6 days, and 7 days post treatment. The lungs from these mice were collected for viral load, immunohistochemistry and cytokines analysis.
(§2) Group D: Infection with 229E, treated with Compound 12: Forty Five (45) BALB/c 6-weeks old female mice were used for this group. Mice were first anesthetized with isoflurane. Each mouse was intranasally infected with 1×10^5 pfu of HCoV-229E and then treated with 0.5 mg of Compound 12 diluted in PBS (75 ul) 24 hours later. Mice from this group were sacrificed at 24 hrs, 48 hrs, 72 hrs, 6 days and 7 days post treatment. The lungs from these mice were collected for viral load, immunohistochemistry and cytokines analysis.

MRSA = assay: Bactericidal activity MIC/MBC; assay type: cell-based; details: Staphylococcus aureus
HCoV-229E = assay: In vivo viral load in mice lung tissue; parameters: species or system BALB/c mice; details: 2 days and 3 days post-treatment, versus control mice
Description: FIG. 6 illustrates the in vivo viral load reduction in mice lung tissue administered Compound 12 compared to control mice that were not administered a compound of the disclosure. In the Group administered Compound 12, a substantial (30-200 fold) reduction of virus replication and production was recorded 2 days and 3 days post-treatment.
as §1, §2

[2] = 7 days, pH 7
Source text: Storage stability in buffer was monitored over time of at least 7 days to determine the effect of solution pH and degradation.

TNF-α = TNF-α production in HEK293 Cells; assay type: cell-based; details: 5 μg/ml
Source text: It was confirmed that Compound 12 stimulates TNF-α production in HEK293 Cells.

human coronavirus 229E = assay: Therapeutic activity against human coronavirus 229E in HFF cells; assay type: cell-based; details: Human coronavirus 229E, HFF; added 24 hours post infection, cells cultured for two weeks, cell viability; read-out: EC50
Description: (1) HFF cells (5×104) were seeded with 1 ml of DMEM media supplemented with 10% FBS in each well of four 24-well tissue culture plates. (2) Cell were cultured for 3 days until HFF cells in each well attained 90% confluency (media was changed 1 day before infection). 10 μl of the 10-time diluted original solution of coronavirus, about 1×10^5 PFU were added into each well. Infection was allowed to proceed overnight. (3) The media was changed 24 hours post infection. CSA-44 was added to test their anti-viral effects. Ten different concentrations of the drug were tested. They were 15 μg/ml, 10 μg/ml, 9 μg/ml, 8 μg/ml, 7 μg/ml, 6 μg/ml, 5 μg/ml, 4 μg/ml, 3 μg/ml, and 2 μg/ml with 0 μg/ml as the control. Each concentration has 12 wells for test. Cells were cultured for two weeks, and cell viability was quantified. CSA-44 was effective in inhibiting viral replication and growth. The values of EC50 (where EC is the concentration of the active that gives 50% of the maximal response) of CSA-44 is identified as 4 μg/ml.
(1) HFF cells (5×104) were seeded with 1 ml of DMEM media supplemented with 10% FBS in each well of four 24-well tissue culture plates. (2) Cells were cultured for 3 days until HFF cells in each well attained 90% confluency (media was changed 1 day before infection). Ten μl of the 10-time diluted original solution of coronavirus, about 1×10^5 PFU, were added into each well. Infection was allowed to proceed overnight. (3) The media was changed 24 hours post infection. Different concentrations of CSA-44 were added to test their anti-viral effects. Each concentration has 12 wells for test. Cells were cultured in the presence of CSA-44 for […] and cell viability was quantified.
(1) HFF cells (5×104) were seeded with 1 ml of DMEM media supplemented with 10% FBS in each well of four 24-well tissue culture plates. (2) Cells were cultured for 3 days until HFF cells in each well attained 90% confluency (media was changed 1 day before infection). […] Cells were cultured for two weeks, and cell viability was quantified. […]

Candida albicans = assay: Fungicidal activity MIC/MBC; assay type: cell-based; details: Yeast
[3] = test system: Calu-3 cells (ATCC #HTB-55); details: for % Luminescence / Luminescence intensity: 3 repeats
in vitro = details: human

## C[C@H](CCC(=O)NCCNC(=O)CCCC[C@@H]1SCC2NC(=O)NC21)C1CCC2C3C(C[C@H](OC(=O)CCN)[C@@]21C)[C@@]1(C)CC[C@@H](OC(=O)CCN)CC1C[C@H]3OC(=O)CCN (some centres unmarked) [Compound 12]
[1]; 3 days post treatment, 0.5 mg intranasally
  effect on the morphology of the lung: does not cause significant detrimental effects
[1]; dosage 0.5 mg/mice
  toxicity in vivo: does not exhibit significant toxicity in vivo
[1]; intranasal, 0.5 mg
  detection of compound in the lung tissues (staining and imaging): detected at 1-2 days post treatment but not in 3 days post treatment
MRSA
  MBC: 1060 µg/mL (≈ 1190 µM)
  MIC: 530 µg/mL (≈ 595 µM)
HCoV-229E
  reduction of virus replication and production: 30-200 fold
[2]
  stability, time: up to 7 days
  stable with no degradation, time: at least 7 days
TNF-α
  TNF-α generated: 7,123 pg/ml
Human coronavirus 229E
  EC50: 3 µg/mL (≈ 3.37 µM)
Candida albicans
  MBC: 66.2 µg/mL (≈ 74.4 µM)
  MIC: 66.2 µg/mL (≈ 74.4 µM)
[3]; 20 uM
  % Luminescence: 102% and 97% and 101%
  Luminescence intensity: 27,723 and 26,322 and 27,521
[3]; 26.7 uM
  % Luminescence: 103% and 97% and 99%
  Luminescence intensity: 27,962 and 26,310 and 26,857
[3]; 35.6 uM
  % Luminescence: 105% and 103% and 104%
  Luminescence intensity: 28,560 and 28,084 and 28,199
[3]; 47.5 uM
  % Luminescence: 110% and 105% and 104%
  Luminescence intensity: 29,946 and 28,451 and 28,177
[3]; 63.3 uM
  % Luminescence: 111% and 110% and 106%
  Luminescence intensity: 30,079 and 29,936 and 28,795
[3]; 84.4 uM
  % Luminescence: 110% and 109% and 108%
  Luminescence intensity: 29,975 and 29,736 and 29,345
[3]; 112.5 uM
  % Luminescence: 108% and 106% and 105%
  Luminescence intensity: 29,458 and 28,788 and 28,587
[3]; 150 uM
  % Luminescence: 107% and 104% and 106%
  Luminescence intensity: 29,194 and 28,202 and 28,754
[3]; 200 uM
  % Luminescence: 111% and 107% and 106%
  Luminescence intensity: 30,150 and 29,181 and 28,872
[3]; human, 3 days
  CC50: > 200 µM
In vitro
  CC50 at 3 days: > 200 µM
